Laboratory results taken from patent publication US20200368247A1, “CENICRIVIROC FOR THE TREATMENT OF FIBROSIS” (Tobira Therapeutics, Inc., priority 2014, published 2020).
Several values for one entry are separate records, joined by “and”; a condition that tells them apart may be missing. Identical values can stand only once.

Assays:
NASH mice = test: STAM mouse model of Non-alcoholic Steatohepatitis, anti-NASH/fibrosis effects, week 9; format: in vivo
Experimental: NASH was induced in male mice by a single injection of […] streptozotocin 2 days after birth (causing impaired glucose control), followed by a high fat diet from 4 weeks of age. […] Animals were sacrificed at 9 weeks of age, and biochemical, gene expression, and histologic evaluations of the liver were conducted.
This in vivo efficacy study was performed to examine the effects of Cenicriviroc in the STAM™ mouse model of Non-alcoholic Steatohepatitis.

CCR2 = biological target: T1, CCR2 (Homo sapiens, UniProt P41597); test: CCR2 receptor occupancy / MCP-1-induced CCR2 internalization in PBMCs, flow cytometry; format: cell-based
T1 construct: endogenous in cells; host or cells: monocytes within PBMCs from HIV+ and HIV- subjects
T1 sequence (P41597 1-360 isoform P41597-2): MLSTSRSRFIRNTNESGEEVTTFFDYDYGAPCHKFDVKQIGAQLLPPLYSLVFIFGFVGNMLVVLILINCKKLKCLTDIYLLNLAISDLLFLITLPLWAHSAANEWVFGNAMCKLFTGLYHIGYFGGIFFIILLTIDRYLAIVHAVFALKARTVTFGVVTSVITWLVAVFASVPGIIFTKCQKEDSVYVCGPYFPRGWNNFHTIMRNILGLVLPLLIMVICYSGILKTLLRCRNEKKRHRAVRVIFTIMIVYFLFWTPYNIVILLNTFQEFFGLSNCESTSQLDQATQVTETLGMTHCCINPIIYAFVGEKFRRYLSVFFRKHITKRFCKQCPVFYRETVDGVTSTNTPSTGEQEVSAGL
Experimental: The capacity of each drug to inhibit CCR5 or CCR2 internalization was evaluated. Cell-surface expression of CCR5 and CCR2 was assessed by flow cytometry, and fluorescence values were converted into molecules of equivalent soluble fluorescence (MESF).

[1] = test system: male CD-1 mice with unilateral ureter occlusion; test: Mouse UUO model of renal fibrosis; format: in vivo
Experimental: Test animals were allocated to weight-matched treatment groups on the day prior to the surgical procedure (Day −1). Male CD-1 mice (N=51; age, 7-8 weeks) underwent either sham surgery or total ligation of the right ureter, i.e. UUO, via aseptic laparotomy (FIG. 12). […] Another group received the anti-transforming growth factor TGF-β1 antibody, compound 1D11 (positive control) at 3 mg/kg/day from Days −1 to 4, injected intraperitoneally once daily, and vehicle control from Days 0 to 5. […] On Day 5, animals were anaesthetised, blood and tissues were collected prior to sacrifice.
Study endpoints included: a) body and kidney weights; b) fibrosis in obstructed kidney evaluated via histological quantitative image analysis of picrosirius red staining (ten images/depth/kidney obtained and assessed in a blinded fashion using light microscopy [at 200×] to enable sampling of 60-70% of the renal cortical area) and quantified by a composite Collagen Volume Fraction (CVF [% total area imaged]) score expressed as the average positive stain across three anatomically distinct ([…] apart) tissue sections, or depths, from the obstructed kidney; c) hydroxyproline content of frozen renal cortical tissue biopsies as assessed by biochemical analyses; d) mRNA expression of profibrotic and inflammatory biomarkers (including MCP-1, Collagen 1a1, Collagen 3a1, TGF-β1, Fibronectin-1, α-smooth muscle actin (α-SMA) and connective tissue growth factor-1 (CTGF-1); assessed via Luminex® (Life Technologies™, Carlsbad, Calif., USA) assay with relative expression normalised to HPRT (hypoxanthine phosphoribosyltransferase).
Data are expressed as mean±standard error of mean (SEM). Statistical analyses were performed using GraphPad Prism® (GraphPad Software, Inc., San Diego, Calif., USA). Treatment differences between sham-surgery+vehiclecontrol and UUO+vehicle-control groups, and between UUO+vehicle-control and UUO+compound-1D11 (positive control) groups, were analysed by unpaired t-Test. Treatment differences between UUO+vehicle-control and CVC-dose groups were analysed by one-way ANOVA (analysis of variance) with Dunnett's test (post-hoc).

HIV-1 = test: Study 201 PK/PD Emax model; format: in vivo, human
Description: Drug response was characterized using the following maximum effect (Emax) model:
where E is effect, E0 is the baseline effect (fixed to 0), Imax is the maximum inhibition, C denotes the PK variable (AUC0-24, Cmax, or steady-state concentration [Css]), IC50 is the value of the PK variable which corresponds to 50% of the maximum inhibition and y is the shape parameter which describes the degree of sigmoidicity.

[2] = Phase 1 studies in healthy volunteer subjects; format: in vivo, human
Description: The frequency and magnitude of transaminase elevations observed across these studies was consistent with the pattern described for Phase 1 studies in scientific literature. […] In both studies and at all doses CVC presented a favorable adverse event profile. […] No clinically relevant changes in ECG parameters or changes for any vital sign parameters were observed during the 48-week treatment period. No apparent dose or exposure relationship for adverse events, laboratory abnormalities (including CPK, ALT, AST and bilirubin elevations) or dose-limiting toxicities were observed.

[3] = CVC-high 100 mg/kg/day, week 9, listed as Cenicriviroc
[4] = CVC-low 20 mg/kg/day, week 9, listed as Cenicriviroc
[5] = CVC 7 and 20 mg/kg/day, compound 1D11

CCCCOCCOc1ccc(-c2ccc3c(c2)/C=C(/C(=O)Nc2ccc([S@@+]([O-])Cc4cncn4CCC)cc2)CCCN3CC(C)C)cc1 [CVC, (S)-8-[4-(2-Butoxyethoxy)phenyl]-1-isobutyl-N-(4-{[(1-propyl-1H-imidazol-5-yl)methyl]sulfinyl}phenyl)-1,2,3,4-tetrahydro-1-benzazocine-5-carboxamide]
decrease of collagen type 1 mRNA in whole liver lysates (NASH mice; 20 and 100 mg/kg/day, week 9): 27-37% | Body weight (NASH mice; CVC-high 100 mg/kg/day, week 9): 18.7 ± 0.9 g | Modified Sirius red-positive area (perivascular space subtracted) (NASH mice; CVC-high 100 mg/kg/day, week 9): 0.20% and 0.20±0.06% | Plasma MCP-1 (NASH mice; CVC-high 100 mg/kg/day, week 9): 91 ± 14 pg/mL | Body weight (NASH mice; [3]): 18.7 ± 0.9 g | Modified Sirius red-positive area (perivascular space subtracted) (NASH mice; [3]): 0.20 ± 0.06% | Plasma MCP-1 (NASH mice; [3]): 91 ± 14 pg/mL | Hepatocyte ballooning score 0, number of mice (NASH mice; CVC-high, week 9, n = 6): 1 | Hepatocyte ballooning score 1, number of mice (NASH mice; CVC-high, week 9, n = 6): 2 | Hepatocyte ballooning score 2, number of mice (NASH mice; CVC-high, week 9, n = 6): 3 | Lobular inflammation score 1, number of mice (NASH mice; CVC-high, week 9, n = 6): 3 | Lobular inflammation score 2, number of mice (NASH mice; CVC-high, week 9, n = 6): 3 | Steatosis score 0, number of mice (NASH mice; CVC-high, week 9, n = 6): 1 | Steatosis score 1, number of mice (NASH mice; CVC-high, week 9, n = 6): 5 | Body weight (NASH mice; CVC-low 20 mg/kg/day, week 9): 19.5 ± 2.0 g | Liver hydroxyproline (μg/mg total protein) (NASH mice; CVC-low 20 mg/kg/day, week 9): 0.63±0.05 μg/mg total protein | Modified Sirius red-positive area (perivascular space subtracted) (NASH mice; CVC-low 20 mg/kg/day, week 9): 0.29% and 0.29±0.14% | Plasma ALT (U/L) (NASH mice; CVC-low 20 mg/kg/day, week 9): 58±12 U/L | Plasma MCP-1 (NASH mice; CVC-low 20 mg/kg/day, week 9): 68 ± 16 pg/mL | Plasma MIP-1β (NASH mice; CVC-low 20 mg/kg/day, week 9): 18 ± 2 pg/mL | Body weight (NASH mice; [4]): 19.5 ± 2.0 g | Liver hydroxyproline (μg/mg total protein) (NASH mice; [4]): 0.63 ± 0.05 μg/mg total protein | Modified Sirius red-positive area (perivascular space subtracted) (NASH mice; [4]): 0.29 ± 0.14% | Plasma ALT (U/L) (NASH mice; [4]): 58 ± 12 U/L | Plasma MCP-1 (NASH mice; [4]): 68 ± 16 pg/mL | Plasma MIP-1β (NASH mice; [4]): 18 ± 2 pg/mL | Hepatocyte ballooning score 1, number of mice (NASH mice; CVC-low, week 9, n = 6): 3 | Hepatocyte ballooning score 2, number of mice (NASH mice; CVC-low, week 9, n = 6): 3 | Lobular inflammation score 1, number of mice (NASH mice; CVC-low, week 9, n = 6): 3 | Lobular inflammation score 2, number of mice (NASH mice; CVC-low, week 9, n = 6): 3 | Steatosis score 1, number of mice (NASH mice; CVC-low, week 9, n = 6): 6 | Modified positive area (%), per mouse (NASH mice; Cenicriviroc-high, individual mice 301-306): 0.20% | Modified positive area (%), per photo (NASH mice; Cenicriviroc-high, individual mice 301-306, photos 1-5): 0.41% and 0.09% (2×) and 0.23% (2×) and 0.17% (2×) and 0.28% (2×) and 0.22% (2×) and 0.08% (3×) and 0.05% and 0.32% and 0.07% (3×) and 0.16% and 0.20% (2×) and 0.68% and 0.27% and 0.12% and 0.11% and 0.67% and 0.26% and 0.06% and 0.10% | Liver hydroxyproline (μg/mg total protein) (NASH mice; week 9): 0.62±0.09 μg/mg total protein | Plasma ALT (U/L) (NASH mice; week 9): 51±13 U/L and 52±13 U/L | Plasma MIP-1β (NASH mice; week 9): 20 ± 4 pg/mL | Liver hydroxyproline (μg/mg total protein) (NASH mice; week 9, listed as Cenicriviroc): 0.62 ± 0.09 μg/mg total protein | Plasma ALT (U/L) (NASH mice; week 9, listed as Cenicriviroc): 52 ± 13 U/L | Plasma MIP-1β (NASH mice; week 9, listed as Cenicriviroc): 20 ± 4 pg/mL | concentration required to reach >80% receptor occupancy (CCR2; CCR2, average): 1.8 nM | prevention of MCP-1-induced CCR2 internalization (CCR2; PBMCs): at lower concentrations than BMS-22 | CCR2 cell-surface expression (CCR2; in the absence of MCP-1, monocytes): decreased cell-surface expression on monocytes | effect on body weight ([1]; CVC 7 mg/kg/day, compound 1D11 3 mg/kg/day, Day 5): no effect on body weight | tolerability in UUO mice ([1]; CVC 100 mg/kg/day): terminated early due to moribundity | effect on obstructed kidney hydroxyproline content ([1]; CVC 7 and 20 mg/kg/day): Neither dose of CVC tested affected UUO-induced increases | Collagen 1a1, Collagen 3a1, TGF-β1 and Fibronectin-1 mRNA expression vs UUO+vehicle-control [1, 5]: did not reach statistical significance | MCP-1, α-SMA and CTGF-1 mRNA expression vs UUO+vehicle-control [1, 5]: did not have significant effects | percent of the maximum inhibitory effect at average Css (HIV-1; 25 mg): 54.9% | percent of the maximum inhibitory effect at average Css (HIV-1; 50 mg): 79.8% | percent of the maximum inhibitory effect at average Css (HIV-1; 75 mg): 85.9% | percent of the maximum inhibitory effect at average Css (HIV-1; 150 mg): 95.9% | Emax in the PK/PD model (HIV-1 RNA) (HIV-1; Emax model): −1.43 log10 copies/mL | generally well tolerated multiple daily doses ([2]; Phase 1, 10 days): up to 200 mg | generally well tolerated single doses ([2]; Phase 1, healthy volunteers): up to 800 mg
